PMC4741798, “Imaging of carbonic anhydrase IX with an ^111In-labeled dual-motif inhibitor” (Oncotarget, 2015)
Entries after “also recorded” stand apart in the source; their conditions may differ.

What was measured:
[1] = tested on: CAIX-expressing SK-RC-52 cells; experiment: Fluorescence microscopic analyses of labeled cells; type: cell-based; conditions: 100 nM of 8 for 1 h; BxPC3 as negative cells
Description: CAIX-positive SK-RC-52 and CAIX-negative BxPC3 cells were seeded on to 8-well chamber glass slides (Lab-Tek®IICC^2™, Nunc, Rochester NY) and incubated in RPMI 1640 media supplemented with 10% FBS and 1 × penicillin-streptomycin in a 37°C humidified incubator for 48 h. Cells were stained with 100 nM of FITC-labeled 8 for 1 h in the same growth media followed by washing twice with the same media. Cells were fixed with 10% formaldehyde (Sigma-Aldrich, Saint Louis, MO) and washed three times with PBS. Cells were treated with 20 nM DAPI (4′,6-diamidino-2-phenylindole) in PBS. The chambers were removed and the Vectashield mounting solution (Vector Laboratories, Inc., Burlingame, CA) was added to the sample. Fluorescence microscopic images were taken using the Nikon Eclipse 80i epifluorescence microscope (Nikon Instruments Inc., Melville, NY) and the images were processed by the Element software (Nikon Instruments Inc.).

[2] = tested on: CAIX-expressing SK-RC-52 cells; experiment: FACS analysis of cell binding; type: cell-based
Description: (§1) CAIX-positive SK-RC-52 and CAIX-negative BxPC3 cells were maintained in RPMI 1640 media supplemented with 10% FBS and 1 × penicillin-streptomycin in a 37°C humidified incubator. Cells were detached from the flask with trypsin and reconstituted in RPMI 1640 media supplemented with 1% FBS at a density of 1 × 10^6 cells per mL. FITC-labeled 8 was added to the cells at the indicated concentration and incubated at room temperature for 30 min. Cells were washed twice with the same media for staining and analyzed using the FACSCalibur (BD Bioscience, San Jose, CA) instrument.

[3] = tested on: CAIX-negative BxPC3 cells; experiment: FACS analysis of cell binding; type: cell-based; conditions: 30 min room temperature
Description: as §1

CAII = target: T1, CAII (Homo sapiens, UniProt P00918); experiment: Fluorescence polarization for affinity comparison (saturation binding); conditions: Fig. 4A
T1 construct: purchased R&D Systems
Description: (§2) Figure 4 Compound 8 had higher binding affinity to CAIX compared to CAII and CAXII Saturation binding curves for CAII, CAIX, and CAXII were generated. 5 nM of compound 8 was titrated by increasing concentrations of CAII, CAIX, and CAXII and the resultant fluorescence polarization (mP) was measured, with EC50 values calculated. […] The target in front of each value (CAII, CAIX, CAXII) is taken from the x-axis title of that panel.
(§3) Human recombinant CAII, CAIX, and CAXII were purchased from R&D systems (Minneapolis, MN). 5 nM of FITC-labeled 8 were mixed with serially diluted (from 1 μM to 19 fM) isoforms of the carbonic anhydrases in PBS within 384 well Small Volume™ LoBase Microplates (Greiner Bio-One, Frickenhausen Germany). The mixtures were incubated at room temperature for 1 h. Fluorescence polarization was measured using a Safire2™ plate reader (Tecan, Morrisville, NC), with 475 nm excitation and 530 nm emission wavelengths.

CAXII = target: T2, CAXII (Homo sapiens, UniProt O43570); experiment: as above; conditions: Fig. 4C
T2 construct: purchased R&D Systems
T2 sequence (O43570 25-354): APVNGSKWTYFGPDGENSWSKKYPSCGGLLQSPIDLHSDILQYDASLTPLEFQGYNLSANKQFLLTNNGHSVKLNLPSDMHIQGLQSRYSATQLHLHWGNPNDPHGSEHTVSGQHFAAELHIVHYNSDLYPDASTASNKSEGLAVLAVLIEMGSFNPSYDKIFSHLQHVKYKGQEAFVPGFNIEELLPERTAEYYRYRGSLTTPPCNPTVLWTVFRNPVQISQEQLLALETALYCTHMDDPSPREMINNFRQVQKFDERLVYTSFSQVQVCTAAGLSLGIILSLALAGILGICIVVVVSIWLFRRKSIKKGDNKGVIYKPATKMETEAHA
Description: as §2, §3

CAIX = target: CAIX; parameters: method as in PMID 25698334; conditions: reported value; cited from earlier work

binding affinity to cytosolic CAII (in words) (CAII): poor binding affinity
affinity to CAXII relative to CAIX (in words) (CAXII): about three-fold lower affinity
SMILES: CC(CCC(=O)N[C@@H](CC(=O)N[C@@H](CC(=O)N[C@@H](CCCCn1cc(CCCC(=O)Nc2nnc(S(N)(=O)=O)s2)nn1)C(=O)NCCOCCOCCNC(=S)Nc1ccc(-c2c3ccc(=O)cc-3oc3cc(O)ccc23)c(C(=O)O)c1)C(=O)O)C(=O)O)(c1ccc(O)cc1)c1ccc(O)cc1 [Compound 8]
cell surface staining by fluorescence microscopy (in words) [1]: Only SK-RC-52 cells were stained with 8 on the surface of the cells; also recorded: bound to the cell surface of SK-RC-52
lowest concentration with significant binding to cells (FACS) [2]: 10 nM
binding to cells by FACS (in words) ([2]; 30 min room temperature): bound specifically
binding to cells by FACS (in words) [3]: not to CAIX-negative BxPC3 cells
Kd (CAIX): 0.2 nM
